Earlier results on 1 compound are cited in patent US20240180903A1, “INJECTABLE PHARMACEUTICAL COMPOSITION, PREPARATION METHOD THEREFOR AND USE THEREOF” (ZHEJIANG CUIZE PHARMACEUTICAL TECHNOLOGY CO., LTD., priority 2022, published 2024).

Series [1] concerns HIV. The note with it: read-out: IC50 against HIV.
In series [2] the test system is HIV RNA in plasma. The note with it: oral 5 mg/d or 30 mg/d, 10 d after a single dose.

pIC50: −log10 of the molar value.

What is called pIC50 is the IC50 on a negative log10 scale, so that one unit is a factor of ten. For `C[C@H]1CO[C@@H]2Cn3cc(C(=O)NCc4ccc(F)cc4F)c(=O)c(O)c3C(=O)N12` [Cabotegravir], the pIC50 in series [1] was 9.66. Moreover, the “HIV RNA in plasma” value in series [2] is given as 2.2-2.3 copies/mL.
